According to patent publication US7754753B2, “Analgesic and anti-inflammatory compositions containing Cox-2-inhibitors” (Wyeth LLC, priority 2000, dated 2010):

Test system: Male Swiss mice
Test: acetic acid-induced writhing test (mouse writhing model)
Type: in vivo
Details: for oral A50 value (antinociceptive dose-response): +30 minutes before acetic acid, 95% confidence limits for ibuprofen 17.57-40.58
Procedure: A modification of the acetic acid-induced writhing test (as disclosed in Porreca, F., H. I. Mosberg, J. R. Omnaas, T. F. Burks and A. Cowan in Supraspinal and spinal potency of selective opioid agonists in the mouse writhing test (Journal of Pharmacology and Experimental Therapeutics 240: 890-894, 1987)) was conducted. The mouse writhing model as described is commonly used to investigate analgesic efficacy and potential synergism with combinations of drugs.
Male Swiss mice weighing 25-30 g were obtained from Ace Laboratories. They were each placed in individual rectangular observation boxes and allowed to acclimate for at least 1 hour. A placebo vehicle of 1% Tween 80/water was prepared.
Groups of 8-10 mice each received the test agent or placebo vehicle (in an amount of 0.25 ml/25 grams of body weight) orally via stomach tube. Those mice that received the placebo vehicle composed the control group. After 20, 30, 40 or 60 minutes, each mouse was injected parenterally with a 0.6% acetic acid solution (0.25 ml/25 g body weight).
Percent inhibition of writhing was expressed as: (Means writhes in control group)−(Writhes by individual mouse)×100/(Mean writhes in control group)
A preliminary study was conducted at +30 minutes to establish antinociceptive dose-response curves for ibuprofen (obtained from Sigma Chemical) and celecoxib (manufactured by G.D. Searle & Co. in 200 mg capsules and marketed under the trademark Celebrex®), respectively.
A second group of mice (n=8-10) received […] of ibuprofen followed immediately by the placebo vehicle. At either +20, +40 or +60 minutes following administration, the animals were injected i.p. with 0.6% acetic acid (0.25 ml/25 g body weight) and run in the writhing test.

[1] = dose 20 mg/kg oral, +30 minutes
[2] = dose 40 mg/kg oral, +30 minutes
[3] = dose 80 mg/kg oral, +30 minutes

Cc1ccc(-c2cc(C(F)(F)F)nn2-c2ccc(S(N)(=O)=O)cc2)cc1 [Celecoxib, 4-[5-(4-methylphenyl)-3-(trifluoromethyl)-1H-pyrazol-1-yl]benzenesulfonamide]
effect of celecoxib on ibuprofen analgesia in words (celecoxib 20 mg/kg given with ibuprofen 29 mg/kg, +20 to +60 min): potentiated the ibuprofen through faster onset and duration of action | antinociceptive activity in words (celecoxib 20 mg/kg oral alone): essentially inactive | Mean % inhibition + s.e.m. (writhing) [1]: 7.5 ± 3.38% | Mean % inhibition + s.e.m. (writhing) [2]: 21.7 ± 4.17% | Mean % inhibition + s.e.m. (writhing) [3]: 28.3 ± 8.34% | oral A50 value (antinociceptive dose-response) (oral): > 80 mg/kg

CC(C)Cc1ccc(C(C)C(=O)O)cc1 (stereo not shown) [Ibuprofen, ibuprofen]
Mean % inhibition + s.e.m. (writhing) [1]: 38.7 ± 11.2% | Mean % inhibition + s.e.m. (writhing) [2]: 59.4 ± 9.58% | Mean % inhibition + s.e.m. (writhing) [3]: 74.0 ± 4.68% | oral A50 value (antinociceptive dose-response) (oral): 29.07 mg/kg | Mean % inhibition + s.e.m. (writhing) (time 20 min, ibuprofen 29 mg/kg followed immediately by celecoxib 20 mg/kg or placebo vehicle, oral): 36.4 ± 3.2% | Mean % inhibition + s.e.m. (writhing) (time 40 min, ibuprofen 29 mg/kg followed immediately by celecoxib 20 mg/kg or placebo vehicle, oral): 14.1 ± 6.2% | Mean % inhibition + s.e.m. (writhing) (time 60 min, ibuprofen 29 mg/kg followed immediately by celecoxib 20 mg/kg or placebo vehicle, oral): 27.3 ± 8.2%
